Like-named read-outs stand apart in the source and are kept apart here. Where no end group is shown, it is not given here.
What was measured:
beagle dogs = test: ELISA antibody titers in sera of immunized beagle dogs; assay type: in vivo, dog; conditions: for antibody titers in sera (words): beagle dogs, 1.0, 1.5, 3.0 mg with nor-MDP and ISA 720, ELISA
Method: In brief, the beagle dogs were purchased from Covance Research Products (Cumberland, VA, USA) and were housed in the Ohio State University Veterinarian Facility Institutional Animal Care Facility. The dogs were housed at 19°C−24°C room temperature with approximately 70% humidity, and 12 h light and 12 h dark–light cycle. The dogs’ body weights were at least 7.5 kg when they received the first immunization. […] The dogs received a total of 4 doses, immunization was done at the rear thigh with two sites of injections, the bleed was collected as indicated time points to monitor the antibody titers, and the body weight of each dog was monitored closely (see Figures 3B, C for detail).
Enzyme-linked immunosorbent assay (ELISA) was performed per our lab standard procedure. Briefly, a 96-well plate was coated with 100 μl of MVF-PD-1(92-110) peptide as an antigen at 2 μg/ml in phosphate-buffered saline (PBS; Research Products International, Mt Prospect, IL, USA, CAS No. 7647-145) overnight at 4°C. Nonspecific binding sites were blocked for 1 h with 200 μl of PBS with 1% BSA (bovine serum albumin; Thermo Fisher Scientific, Waltham, […], USA, BP9703-100), and the plate was washed with a washing buffer (PBS diluted 0.05% Tween 1% horse serum). […] After washing, the antibody was detected using 50 μl of 0.15% H2O2 in 24 mM of citric acid and 5 mM of the sodium phosphate buffer (pH5.2) with 0.5 mg/ml 2, […] (3-ethylbenzthiazole- 6-sulfonic acid, ABTS; Sigma, St. Louis, MO, USA) as the chromophore. […] Absorbance was read at 415 nm using an ELISA microplate reader (SPECTRAmax PLUS384; Molecular Devices, San Jose, CA, USA). The highest dilution at the cutoff absorbance 0.2 were determined as the antibody titer.
This study was designed to monitor the kinetics of how quickly the antibody levels to MVF-PD-1(92-110) diminished after the dosing was stopped. […] We monitored the beagle dogs’ body weight closely during the immunization period ( Figure 3C ).

[1] = Toxicokinetics of APi2568 in monkey plasma (UHPLC-MS/MS); assay type: in vivo, cynomolgus monkey; conditions: for Cmax: UHPLC-MS/MS; for accumulation ratio (RA): TK profiles on days 1 and 43
Method: The non-human primate studies were carried out by the Charles River Laboratories (Ashland, OH USA). All the cynomolgus monkeys (Macaca fascicularis of Chinese origin) were obtained from Charles River Laboratories (Houston, TX, USA). In brief, the animals were approximately 2–4 years old and at the body weight between 2.2 and 3.1 kg at the initial dosing. The animals were kept at the temperature between 19°C and 24°C, humidity 30%–70%, and with 12 h light and 12 h dark light cycle. The Good manufacturing practice (GMP)-manufactured vaccine was used in the non-human primate study. […] Similar to mouse and dog dosing preparation, after the emulsion was prepared, a drop test was performed on each time of dosing to confirm that the emulsion had been prepared properly. […] The dose volume was split approximately equally across two different sites; 0.5 ml of the dose was intramuscularly (IM) injected into the right posterior lateral thigh, the left dosing was injected into the left site. All the animals’ body weights were monitored weekly after receiving. After each immunization, the animal body temperature was tested 6 and 24 h post each immunization. […] The animal bleed were collected before each time of immunization to monitor the antibody titers. There were two sets of non-human primate studies conducted. The first set of monkey study No.00213515 had 24 monkeys, 12 males, and 12 females divided into 4 groups: vehicle control, low dose 0.5 mg, medium dose 2 mg, and high dose 5 mg. There were 16 monkeys (8 males and 8 females) in the second set of monkey study No. 00213519. The monkeys in the four groups were vaccinated as follows: vehicle control, low dose 25 μg, medium dose 100 μg, and high dose 250 μg.
For the determination of TK parameters, blood samples were collected at various times after dosing analyzed using a validated UHPLC-MS/MS (ultra-high-performance liquid chromatography with tandem mass spectrometry) method, for the quantification of APi2568 in monkey plasma.

[2] = female, 2 mg/dose IM as PD1-Vaxx, day 43, mean
[3] = female, 5 mg/dose IM as PD1-Vaxx, day 1
[4] = female, 5 mg/dose IM as PD1-Vaxx, day 43, mean
[5] = male, 0.5 mg/dose IM as PD1-Vaxx, day 43, mean
[6] = male, 2 mg/dose IM as PD1-Vaxx, day 43, mean
[7] = male, 5 mg/dose IM as PD1-Vaxx, day 1
[8] = male, 5 mg/dose IM as PD1-Vaxx, day 43, mean

## KLLSLIKGVIVHRLEGVEGPSLGAISLAPKAQIKESLRAEL [MVF-PD-1(92-110)]
Beagle dogs
  antibody titers in sera (words): high titer antibody
Beagle dogs; listed as PD-1(92)
  antibody titers in sera (words): high immunogenicity
Beagle dogs; beagle dogs, 4Y boost 6 months after primary immunization
  antibody titers after dosing stopped and after re-challenge: dropped to very low levels in the absence of dosing but could be recovered if the dog was re-challenged with vaccine
[1]; day 43, 0.5 mg/dose group (both sexes) and 2 mg/dose female monkeys
  plasma concentrations relative to the LLOQ: ≤ 6 fold
[1]; day 43, 2 and 5 mg/dose male monkeys and a single 5 mg/dose female monkey
  T1/2 mean value: approximately 13 h
[1]; female, 0.5 mg/dose IM as PD1-Vaxx, day 43, mean
  Cmax/D: 17.6 (ng/ml)/(mg/dose)
[1]; [2]
  AUC(0-t)/D: 47.3 (ngh/ml)/(mg/dose)
  Cmax/D: 6.92 (ng/ml)/(mg/dose)
  Tlast: 8 h
[1]; [3]
  AUC(0-t)/D: 3.79 (ngh/ml)/(mg/dose)
  Cmax/D: 0.954 (ng/ml)/(mg/dose)
  Tlast: 4 h
[1]; female, 5 mg/dose IM as PD1-Vaxx, day 1, AUC calculable in 1 monkey/sex
  AUC(0-t): 18.9 ng·h/mL
[1]; female, 5 mg/dose IM as PD1-Vaxx, day 43, calculable for a single female monkey
  T1/2: 19.6 h
[1]; [4]
  AUC(0-t)/D: 266 (ngh/ml)/(mg/dose)
  Cmax/D: 31.9 (ng/ml)/(mg/dose)
  Tlast: 34 h
  Tmax: 1 h
[1]; female, cynomolgus monkey, plasma, im, 0.5 mg/dose, female, 0.5 mg/dose IM as PD1-Vaxx, day 43, plasma, mean (generally n = 3)
  Cmax: 8.81 ng/mL
[1]; female, cynomolgus monkey, plasma, im, 0.5 mg/dose, read-out: Tmax
  Tmax: 2 h
[1]; female, cynomolgus monkey, plasma, im, 2 mg/dose, female, 2 mg/dose IM as PD1-Vaxx, day 43, mean, one female had significantly lower exposure, read-out: AUC(0-t)
  AUC(0-t): 94.5 ng·h/mL
[1]; female, cynomolgus monkey, plasma, im, 2 mg/dose, female, 2 mg/dose IM as PD1-Vaxx, day 43, plasma, mean (generally n = 3)
  Cmax: 13.8 ng/mL
[1]; female, cynomolgus monkey, plasma, im, 2 mg/dose, read-out: Tmax
  Tmax: 4 h
[1]; female, cynomolgus monkey, plasma, im, 5 mg/dose, female, 5 mg/dose IM as PD1-Vaxx, day 1, plasma, mean as printed
  Cmax: 4.77 ng/mL
[1]; female, cynomolgus monkey, plasma, im, 5 mg/dose, female, 5 mg/dose IM as PD1-Vaxx, day 43, mean, read-out: AUC(0-t)
  AUC(0-t): 1330 ng·h/mL
[1]; female, cynomolgus monkey, plasma, im, 5 mg/dose, female, 5 mg/dose IM as PD1-Vaxx, day 43, plasma, mean (generally n = 3)
  Cmax: 160 ng/mL
[1]; female, cynomolgus monkey, plasma, im, 5 mg/dose, read-out: Tmax
  Tmax: 1 h
[1]; [5]
  AUC(0-t)/D: 125 (ngh/ml)/(mg/dose)
  Tlast: 8 h
[1]; [6]
  AUC(0-t)/D: 247 (ngh/ml)/(mg/dose)
  Tlast: 24 h
[1]; [7]
  AUC(0-t)/D: 30.1 (ngh/ml)/(mg/dose)
  Cmax/D: 2.01 (ng/ml)/(mg/dose)
  Tlast: 24 h
[1]; [8]
  AUC(0-t)/D: 693 (ngh/ml)/(mg/dose)
  Cmax/D: 40.5 (ng/ml)/(mg/dose)
  Tlast: 48 h
  Tmax: 1 h
[1]; male, cynomolgus monkey, plasma, im, 0.5 mg/dose, male, 0.5 mg/dose IM as PD1-Vaxx, day 43, mean, read-out: AUC(0-t)
  AUC(0-t): 62.3 ng·h/mL
[1]; male, cynomolgus monkey, plasma, im, 0.5 mg/dose, read-out: Tmax
  Tmax: 1 h
[1]; male, cynomolgus monkey, plasma, im, 2 mg/dose
  half-life: 13.1 h
[1]; male, cynomolgus monkey, plasma, im, 2 mg/dose, male, 2 mg/dose IM as PD1-Vaxx, day 43, mean, read-out: AUC(0-t)
  AUC(0-t): 494 ng·h/mL
[1]; male, cynomolgus monkey, plasma, im, 2 mg/dose, read-out: Tmax
  Tmax: 1 h
[1]; male, cynomolgus monkey, plasma, im, 5 mg/dose
  half-life: 12.7 h
[1]; male, cynomolgus monkey, plasma, im, 5 mg/dose, male, 5 mg/dose IM as PD1-Vaxx, day 1, AUC calculable in 1 monkey/sex, read-out: AUC(0-t)
  AUC(0-t): 151 ng·h/mL
[1]; male, cynomolgus monkey, plasma, im, 5 mg/dose, male, 5 mg/dose IM as PD1-Vaxx, day 1, plasma, mean as printed
  Cmax: 10.1 ng/mL
[1]; male, cynomolgus monkey, plasma, im, 5 mg/dose, male, 5 mg/dose IM as PD1-Vaxx, day 43, mean, read-out: AUC(0-t)
  AUC(0-t): 3460 ng·h/mL
[1]; male, cynomolgus monkey, plasma, im, 5 mg/dose, male, 5 mg/dose IM as PD1-Vaxx, day 43, plasma, mean (generally n = 3)
  Cmax: 202 ng/mL
[1]; male, cynomolgus monkey, plasma, im, 5 mg/dose, read-out: Tmax
  Tmax: 2 h
[1]; single female monkey, 5 mg/dose
  accumulation ratio (RA): 121
[1]; single male monkey, 5 mg/dose
  accumulation ratio (RA): 16.3
